{"source": "paper PMC9293909", "about": "(Nature Communications, 2022)", "key": {"respiration (f, VT, VE)": {"test_system": "respiration (f, VT, VE)", "test": "Urethane-anaesthetised rat, respiration", "description": "The femoral vein was catheterised for drug delivery.\nAdult male Sprague–Dawley rats (400-500 g) were anaesthetised with urethane and instrumented as described above, with the exception that the arterial cannulation was not performed.\nChanges in f, VT, and VE were measured. If the dosing occurred close to a respiratory event such as a sigh a second IV dose was administered, with 20 min recovery periods either side of the injection."}, "hA2AR": {"target": "T1, hA2AR (Homo sapiens, UniProt P29274)", "T1 construct": "expressed in transfected cells; host or cells: CHO-K1", "T1 sequence (P29274 whole entry)": "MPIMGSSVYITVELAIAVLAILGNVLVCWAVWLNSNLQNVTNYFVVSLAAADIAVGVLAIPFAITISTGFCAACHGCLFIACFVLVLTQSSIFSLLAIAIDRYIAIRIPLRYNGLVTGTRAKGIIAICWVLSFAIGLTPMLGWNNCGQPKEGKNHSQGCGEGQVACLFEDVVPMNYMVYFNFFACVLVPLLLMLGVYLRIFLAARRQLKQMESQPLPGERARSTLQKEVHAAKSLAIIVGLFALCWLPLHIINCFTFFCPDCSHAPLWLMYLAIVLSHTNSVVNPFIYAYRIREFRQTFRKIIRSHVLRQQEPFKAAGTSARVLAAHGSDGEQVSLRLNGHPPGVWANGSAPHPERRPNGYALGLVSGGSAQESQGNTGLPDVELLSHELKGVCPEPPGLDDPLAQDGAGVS", "test": "cAMP accumulation at hA2AR", "type": "cell-based", "description": "CHO cell lines expressing ARs of interest (including mutants of the hA1R) were routinely cultured in Ham’s F-12 nutrient mix supplemented with 10% foetal bovine serum (FBS), at 37 °C with 5% CO2, in a humidified atmosphere."}, "hA1R:Goa": {"target": "T2, hA1R:Goa (Homo sapiens, UniProt P30542)", "T2 construct": "cDNA resource centre (pcDNA3.1-A1R)", "T2 sequence (P30542 whole entry)": "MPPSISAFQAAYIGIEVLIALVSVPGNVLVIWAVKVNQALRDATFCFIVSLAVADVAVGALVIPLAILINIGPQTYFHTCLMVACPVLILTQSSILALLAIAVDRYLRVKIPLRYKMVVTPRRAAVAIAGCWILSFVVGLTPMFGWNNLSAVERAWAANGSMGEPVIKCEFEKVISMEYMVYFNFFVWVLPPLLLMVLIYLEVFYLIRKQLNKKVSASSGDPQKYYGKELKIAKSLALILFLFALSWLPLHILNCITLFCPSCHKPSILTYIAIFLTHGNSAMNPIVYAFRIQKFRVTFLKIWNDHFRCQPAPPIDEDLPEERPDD", "T2 sequence (P09471 2-354 partner limits assumed)": "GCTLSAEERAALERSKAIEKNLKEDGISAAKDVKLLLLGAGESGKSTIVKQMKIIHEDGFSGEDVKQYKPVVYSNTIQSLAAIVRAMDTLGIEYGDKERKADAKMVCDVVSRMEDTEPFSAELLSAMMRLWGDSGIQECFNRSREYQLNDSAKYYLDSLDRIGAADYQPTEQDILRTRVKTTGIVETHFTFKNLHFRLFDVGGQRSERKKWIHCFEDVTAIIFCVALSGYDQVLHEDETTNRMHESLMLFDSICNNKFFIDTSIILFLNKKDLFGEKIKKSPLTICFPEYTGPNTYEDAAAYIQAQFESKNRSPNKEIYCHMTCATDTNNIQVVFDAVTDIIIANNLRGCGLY", "T2 sequence (P16520 whole entry partner)": "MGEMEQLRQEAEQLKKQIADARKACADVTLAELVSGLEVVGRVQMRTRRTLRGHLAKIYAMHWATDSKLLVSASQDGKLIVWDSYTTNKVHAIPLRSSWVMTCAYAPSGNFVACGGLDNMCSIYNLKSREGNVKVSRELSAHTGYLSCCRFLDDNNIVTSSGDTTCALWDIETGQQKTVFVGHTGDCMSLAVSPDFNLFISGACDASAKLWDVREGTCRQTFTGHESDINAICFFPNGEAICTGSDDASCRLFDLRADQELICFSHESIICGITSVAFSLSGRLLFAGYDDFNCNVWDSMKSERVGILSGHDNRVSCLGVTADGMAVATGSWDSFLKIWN", "T2 sequence (Q9UK08 1-67 partner limits assumed)": "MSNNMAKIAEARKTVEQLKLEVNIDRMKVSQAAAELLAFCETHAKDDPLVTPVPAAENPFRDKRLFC", "test": "TRUPATH G protein dissociation BRET assay, Goa", "type": "cell-based", "details": "Fig2h", "description": "Cells were plated in a density of 1,500,000 cells/well in a 6-well plate and grown in DMEM /F-12 GlutaMAX™ media (Thermo Fisher Scientific, UK) supplemented with 10% FBS (Sigma, UK) and 1% AA (Sigma, UK). After being grown overnight, cells in each well were transfected using polyethylenimine 25 kDa (PEI, Polysciences Inc., Germany) at a 6:1 ratio of PEI to DNA, diluted in 150 mM NaCl. […] Gɑ (either Goa-RLuc8, or Gob-RLuc8), Gβ3 and Gγ8-GFP2 constructs were purchased as part of the TRUPATH sensor kit from Addgene, pcDNA3.1-A1R was obtained from cDNA resource centre, and pcDNA3.1 (-) zeo was purchased from Invitrogen. After 24 h, cells were trypsinised and re-seeded onto poly-L-lysine (PLL)-coated white 96-well plates (Greiner, UK) at the density of 50,000 cells/well in a complete DMEM/F-12 medium. After grown overnight, the culture media was discarded and replaced with 80 μl assay buffer (1× Hank’s balanced salt solution (HBSS) with calcium, supplemented with 20 mM HEPES and 0.1% BSA at pH 7.4). The assay was started by adding 10 μl of coelenterazine 400a (Nanolight technology, USA) to a final concentration of 5 μM. The plates were then incubated in the dark for 5 min, prior to the addition of 10 μl compounds (in a range of 0.01 nM – 1 µM). […] BRET signal was recorded for 30 min on a Mithras LB940 plate reader allowing sequential integration of signal detected from GFP2 and Rluc8."}, "[1]": {"details": "Fig6g, average, n 4, CPA alone or CPA + BnOCPA"}, "[2]": {"details": "Fig6g, individual animal, CPA alone or CPA + BnOCPA"}}, "note": "Where “and” joins values, the source holds several entries; their conditions need not be identical. Equal entries are not always repeated. Where two headings read alike, the source gives them in different places.", "data": [{"smiles": "OC[C@H]1O[C@@H](n2cnc3c(NC4CCCC4)ncnc32)[C@H](O)[C@@H]1O", "note": "[CPA, N^6-Cyclopentyladenosine]", "values": [{"measurement": "tidal volume VT after injection", "setting": "respiration (f, VT, VE); CPA 6 µg kg^−1 IV, resting 1.1 ± 0.1", "result": "0.8 ± 0.1", "unit": "mL"}, {"measurement": "respiratory frequency f after injection", "setting": "respiration (f, VT, VE); CPA 6 µg kg^−1 IV, resting 143 ± 11", "result": "108 ± 10", "unit": "BrPM"}, {"measurement": "minute ventilation VE after injection", "setting": "respiration (f, VT, VE); CPA 6 µg kg^−1 IV, resting 155 ± 28", "result": "99 ± 19", "unit": "mL/min"}, {"measurement": "effect on Freq (difference from previous baseline)", "setting": "respiration (f, VT, VE); CPA 6 µg kg^−1 alone", "result": "52 ± 8", "unit": "breaths/min"}, {"measurement": "effect on VE (difference from previous baseline)", "setting": "respiration (f, VT, VE); CPA 6 µg kg^−1 alone", "result": "59 ± 9", "unit": "mL/min"}, {"measurement": "Frequency (respiration)", "setting": "respiration (f, VT, VE); Fig6b, individual rat", "result": "97.7 and 153.2 and 77.8 and 92.8 and 134.8 and 131.4 and 100.3 and 76.5"}, {"measurement": "Frequency (respiration), Average", "setting": "respiration (f, VT, VE); Fig6b, n 8", "result": 108.1}, {"measurement": "VT", "setting": "respiration (f, VT, VE); Fig6c, individual rat", "result": "1 and 1.31 and 0.72 and 0.49 and 0.42 and 0.81 and 1.39"}, {"measurement": "VT, Average", "setting": "respiration (f, VT, VE); Fig6c, n 8", "result": 0.82}, {"measurement": "Freq, Average", "setting": "respiration (f, VT, VE); [1]", "result": -52}, {"measurement": "VE, Average", "setting": "respiration (f, VT, VE); [1]", "result": -59}, {"measurement": "VT, Average", "setting": "respiration (f, VT, VE); [1]", "result": -0.065}, {"measurement": "Freq", "setting": "respiration (f, VT, VE); [2]", "result": "-58 and -41 and -36 and -72"}, {"measurement": "VE", "setting": "respiration (f, VT, VE); [2]", "result": "-86 and -53 and -48 and -49"}, {"measurement": "VT", "setting": "respiration (f, VT, VE); [2]", "result": "-0.31 and 0.1 and -0.15"}, {"measurement": "VE", "setting": "respiration (f, VT, VE); Fig6d, individual rat", "result": "110 and 203 and 69 and 42 and 63 and 139 and 46 and 116"}, {"measurement": "VE, Average", "setting": "respiration (f, VT, VE); Fig6d, n 8", "result": 99}]}, {"smiles": "OC[C@H]1O[C@@H](n2cnc3c(N[C@@H]4CCC[C@H]4O)ncnc32)[C@H](O)[C@@H]1O", "note": "[HOCPA, (2 R,3 R,4 S,5 R)−2-(6-{[(1 R,2 R)−2-hydroxycyclopentyl]amino}−9H-purin-9-yl)−5-(hydroxymethyl)oxolane-3,4-diol]", "values": [{"measurement": "EC50", "setting": "hA2AR; half-maximal response, cAMP, read-out: pEC50 hA2AR (converted)", "result": 3240, "unit": "nM"}, {"measurement": "Range hA2AR", "setting": "hA2AR; range of response as percentage of response to 10 μM forskolin", "result": "41.66 ± 6.1", "unit": "%"}, {"measurement": "EC50", "setting": "hA1R:Goa; individual replicate, read-out: TRUPATH Goa potency (converted)", "result": "64.6 nM and 83.2 nM and 81.3 nM and 37.2 nM and 27.5 nM and 44.7 nM and 30.2 nM"}, {"measurement": "EC50", "setting": "hA1R:Goa; n 8, read-out: TRUPATH Goa potency, Average (converted)", "result": 45.7, "unit": "nM"}]}]}
